Reference: US20240247048A1 (EMORY UNIVERSITY, priority 2021, published 2024)

Key:
[1] = system: luciferase+ mouse T cells; assay: proliferation of luciferase+ mouse T cells in vitro (plate-bound anti-CD3, luminescence); assay type: cell-based; details: 96 hours; for lowest concentration of peptide that led to maximal luminescence: luc+ T cell proliferation, plate-bound anti-CD3; for luc+ T cell proliferation: relative luminescence, quadruplicate wells, plate-bound anti-CD3, daily addition of peptide, at the concentration in brackets
Source text: (§1) VIP-related peptides tested in silico for predicted binding affinities to human VPAC1 and VPAC2 (Creative Biolabs). Docking scores show predicted free energy change associated with peptide binding. Note that a greater negative score is predicted to be associated with higher binding affinity. Based upon an initial screen of 300 peptides for binding affinity to VPAC1 and screening a subset of 100 peptides for binding affinity to VPAC2, a select group of peptides were synthesized and tested for their ability to stimulate proliferation of luciferase+ mouse T cells in vitro. The lowest concentration of peptide that led to maximal luminescence is shown. Proliferation data represents the relative level of luminescence from quadruplicate wells containing 1×10E5 T cells/well in a 96 well tissue culture plate stimulated for 96 hours with plate-bound anti-CD3 antibodies. Confirmatory in vivo testing of select peptides was then performed based upon their ability to induce autologous anti-leukemia responses in C57Bl/6 mice that had been previously injected with 1×10E6 C1498 acute myeloid leukemia cells. Leukemia cells were injected on day 0, 10 ug peptide was injected s.c. daily on days 6-12. The predicted binding affinity to VPAC1 and/or VPAC2 was associated with enhanced activity in stimulating mouse T cell proliferation and anti-leukemia activity in mice.

[2] = system: C1498 acute myeloid leukemia cells; assay: survival of mice engrafted with C1498 acute myeloid leukemia; assay type: in vivo, mouse; design: percentage of survival: concentration or dose not given beside the values; details: for Median survival time / Percentage alive day 60: 1 x 10E6 C1498 i.v. on day 0, 10 ug peptide s.c. daily on days 6-12; for percentage of survival: FIG. 3, leukemia-bearing mice treated with peptide
Description: B6 (CD45.2, H-2K^b) mice were administered C1498 1×10^6/mouse through tail vein. […] Survival of the mice was observed daily. Data were pooled from 3 replicated experiments.
B6 (CD45.2, H-2K^b) mice were administered C1498 1×10^6/mouse through tail vein. […] Survival of the mice was observed daily. Survival of the mice were pooled from 3 replicated experiments and analyzed by log-rank test compared with the survival of mice treated with scrambled peptide.
B6 SJL (CD45.1, H-2K^b) mice were administered C1498 (CD45.2 H-2K^b) 1×10^6/mouse through tail vein. […] The mice were bled weekly from the submandibular vein, starting from day 6, prior to the administration of peptides. Antibodies to CD45.2 identified myeloid leukemia cells and antibodies to CD45.1 identified murine leukocytes of the host.
as §1
To test the ability of the disclosed VIP-R antagonists to effect survival to acute myeloid leukemia survival, B6 (CD45.2, H-2K^b) mice were administered C1498 1×10^6/mouse through tail vein. […] Survival of the mice was observed daily.

human T cells = assay: activation of healthy-donor human T cells (anti-CD3), marker expression by flow cytometry; assay type: cell-based; details: across multiple donors
Description: Mean value from ‘Activated’ group shown with dotted line (---) for comparison. Responses from same healthy donors are shown with same color dots. Error bars are computed as the standard error of the mean (SEM) from 6 healthy donor samples.
This study adopted an ex-vivo system using human T cells isolated from healthy donors to screen for novel VIP-R antagonist peptides. Human T cells were cultured over 6 or 24 hours with activation in the presence or absence of peptides and were assessed for percent CD69 surface expression by flow cytometry to measure the state of T cell activation. The activity of the peptides was determined by percent increase in CD69 expression relative to no peptide control. […] We also observed that amongst the donors, most were classified as average responders, with measured value for CD69 expression within the error bars while two others had measured values outside the error bars, one sample reflecting a super-responder (purple dots) and one sample reflecting a slow-responder (green dots) (FIGS. 10A and 10B). […]
Human T cell activation and expansion. […] Cells were counted using Trypan blue dye and phenotyped via flow cytometry on day 9. […]

Row | Sequence | lowest concentration of peptide that led to maximal luminescence [1] | luc+ T cell proliferation [1] | Median survival time [2] | Percentage alive day 60 [2] | percentage of survival [2] | activity compared among the three antagonists (CD69) (human T cells)
1 | KPRRPYAVNYTRLRKQIAVKKYLMSILN [ANT105] | 3 µM | 121% + 6% | – | – | – | –
2 | KPRRPYTDNCTSLRKQIAVNKYLNLILN [ANT197] | 3 µM | 161% + 13% | 37 days | 35% | 35% | –
3 | KPRRPYADNCTRLRKQIAVNKKYLNSILN [ANT114] | – | – | 34 days | 20% | 20% | –
4 | KPRRPYTDNCTRLRKQMAVKKYLNSILN [ANT005] | 3 µM | 187% + 1% | – | – | – | –
5 | KPRRPYAVNYTRLRKQMAVNKYLMSILN [ANT107] | – | – | 38 days | 30% | 20% | –
6 | KPRRPYADNYTRLRKQMAVNKYLNLILN [ANT058] | – | – | 35 days | 30% | 30% | –
7 | KPRRPYAVNCTSLRKQIAVKKYLMSILN [ANT203] | 3 µM | 185% + 8% | 34 days | 25% | 25% | –
8 | KPRRPYTSDYTRLRKQMAVKKYLNSILN [ANT300] | 0.3 µM | 216% + 20% | 47 days | 33.30% | – | –
9 | KPRRPYTVNYTSLRKQIAVKKYLMLILN [ANT195] | 3 µM | 161% + 23% | 38 days | 40% | 40% | highest activity
10 | KPRRPYAVNCTSLRKQIAVNKYLNSILN [ANT202] | 3 µM | 171% + 8% | – | – | – | –
11 | HSDAVFTDNYTRLRKQMAVKKYLNSILN [VIP, reference compound] | 0.1 µM | 77% + 13% | 30 days | 0% | – | –
12 | KPRRPYTDNYTRLRKQMAVKKYLNSILN [VIPhyb, reference compound] | 1 µM | 197% + 38% | 34 days | 5% | 5% | –
13 | KKPRRPYTVNCTSLRKQIAVKKYLMLILN [ANT219] | 3 µM | 189% + 8% | 35 days | 20% | 20% | –
14 | HSDAVFINTKLDKLNTRLVSAQNYMKYR [SCRAM1, reference compound] | – | – | 28 days | 0% | – | –
15 | KPRRPYINTKLDKLNTRLVSAQNYMKYR [SCRAM2, reference compound] | – | 108.74% | – | 0% | – | –
